Reference: BindingDB's records for doi:10.1021/jm0101085 (University of North Carolina, 2001)

Experiments:
[1] = target: T1, Tubulin alpha-1A chain (Sus scrofa, UniProt P02550); assay: Percent inhibition of colchicine binding(ICB) at 5 uM [3H]colchicine concentration
[2] = target: T1, Tubulin alpha-1A chain; assay: Inhibition of colchicine binding(ICB). [3H]colchicine concentration was 5 uM
[3] = target: T1, Tubulin alpha-1A chain; assay: Inhibition of colchicine binding(ICB). Tubulin concentration was 1 uM

T1 sequence (P02550 whole entry, looked up): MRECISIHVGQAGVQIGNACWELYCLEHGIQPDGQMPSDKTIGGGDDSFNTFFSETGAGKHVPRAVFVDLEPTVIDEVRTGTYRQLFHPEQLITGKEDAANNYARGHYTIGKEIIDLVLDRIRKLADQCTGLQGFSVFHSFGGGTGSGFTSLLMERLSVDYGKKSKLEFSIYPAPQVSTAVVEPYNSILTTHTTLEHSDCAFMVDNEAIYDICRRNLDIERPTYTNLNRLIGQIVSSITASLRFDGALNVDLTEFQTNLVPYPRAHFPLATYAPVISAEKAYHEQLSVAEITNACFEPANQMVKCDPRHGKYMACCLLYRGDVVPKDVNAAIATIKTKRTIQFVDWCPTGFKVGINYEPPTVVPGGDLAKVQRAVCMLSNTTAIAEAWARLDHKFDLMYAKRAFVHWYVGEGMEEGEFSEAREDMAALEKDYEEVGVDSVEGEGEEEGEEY

Oc1cc(-c2ccccc2F)nc2cc3c(cc12)OCO3 [2-(2-fluorophenyl)-6,7-methylenedioxyquinolin-4-one]
Inhibition [1]: 39%

Oc1cc(-c2ccccc2F)nc2ccc(N3CCCC3)cc12 [2-(2-fluorophenyl)-6-(pyrrolidin-1-yl)quinolin-4(1H)-one]
Inhibition [2]: 93% | Inhibition [3]: 76%
